# Measurements taken from BindingDB's records for doi:10.7270/Q2TH8K43 (Burnham Center For Chemical Genomics, 2010).
# Molecular target: Nucleotide-binding oligomerization domain-containing protein 2 (Homo sapiens, UniProt Q9HC29)
# Assay: PubChem AID 2334
# Nucleotide-binding oligomerization domain-containing protein 2, sequence (Q9HC29 whole entry, the tested form may be a part): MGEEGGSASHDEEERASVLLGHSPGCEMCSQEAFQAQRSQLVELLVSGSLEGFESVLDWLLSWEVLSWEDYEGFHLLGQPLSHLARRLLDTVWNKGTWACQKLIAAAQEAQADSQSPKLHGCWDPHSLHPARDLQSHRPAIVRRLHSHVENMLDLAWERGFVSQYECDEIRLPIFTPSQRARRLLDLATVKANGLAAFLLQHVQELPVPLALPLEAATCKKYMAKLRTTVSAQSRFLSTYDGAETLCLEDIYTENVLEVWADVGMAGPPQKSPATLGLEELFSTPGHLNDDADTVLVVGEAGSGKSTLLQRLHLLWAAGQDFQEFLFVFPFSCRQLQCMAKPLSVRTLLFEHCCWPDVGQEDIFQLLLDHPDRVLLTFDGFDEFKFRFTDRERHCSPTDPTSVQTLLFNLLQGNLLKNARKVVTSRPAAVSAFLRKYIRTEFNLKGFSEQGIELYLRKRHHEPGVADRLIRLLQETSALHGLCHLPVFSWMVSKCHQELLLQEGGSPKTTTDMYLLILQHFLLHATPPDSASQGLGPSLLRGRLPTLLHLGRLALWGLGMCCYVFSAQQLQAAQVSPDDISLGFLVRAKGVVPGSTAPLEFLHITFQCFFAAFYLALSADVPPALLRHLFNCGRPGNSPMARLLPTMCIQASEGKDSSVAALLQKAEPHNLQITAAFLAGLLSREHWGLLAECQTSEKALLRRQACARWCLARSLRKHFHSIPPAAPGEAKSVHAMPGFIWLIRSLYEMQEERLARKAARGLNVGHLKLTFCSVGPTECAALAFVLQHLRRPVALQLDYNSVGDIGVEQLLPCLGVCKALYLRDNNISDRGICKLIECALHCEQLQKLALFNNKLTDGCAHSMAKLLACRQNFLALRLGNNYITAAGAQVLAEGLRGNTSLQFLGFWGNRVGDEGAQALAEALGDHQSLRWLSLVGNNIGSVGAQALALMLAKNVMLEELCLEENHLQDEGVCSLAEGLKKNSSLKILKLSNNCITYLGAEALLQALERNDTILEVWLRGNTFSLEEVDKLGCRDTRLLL
row,Structure (SMILES),IC50 [µM]
1,Cc1ccc(C)c(SCC(=O)OCC(=O)C(C#N)c2nc3ccccc3[nH]2)c1 (stereo unspecified) [MLS000392255],> 20
2,"N#CC(C(=O)COC(=O)CSc1ccc2ccccc2c1)c1nc2ccccc2[nH]1 (stereo unspecified) [[3-cyano-3-(1,3-dihydrobenzimidazol-2-ylidene)-2-oxopropyl] 2-naphthalen-2-ylsulfanylacetate]",> 20
3,N#CC(C(=O)COC(=O)CSc1ccc(Cl)cc1)c1nc2ccccc2[nH]1 (stereo unspecified) [MLS-0208254.0001],> 20
4,"Cc1cc(Br)ccc1SCC(=O)OCC(=O)C(C#N)c1nc2ccccc2[nH]1 (stereo unspecified) [2-[(4-bromo-2-methylphenyl)thio]acetic acid [3-cyano-3-(1,3-dihydrobenzimidazol-2-ylidene)-2-oxopropyl] ester]",> 20
5,"Cc1ccc(O)c(/N=C/C2=CC(Cc3ccccc3)C=C([N+](=O)[O-])C2=O)c1 (stereo unspecified) [(6E)-6-[[(5-methyl-2-oxidanyl-phenyl)amino]methylidene]-2-nitro-4-(phenylmethyl)cyclohexa-2,4-dien-1-one]",> 20
6,Cc1cc(SCC(=O)OCC(=O)C(C#N)c2nc3ccccc3[nH]2)c(C)cc1Br (stereo unspecified),> 20
